The target of test [1] is T1, FAK (Homo sapiens, UniProt Q05397). Put plainly: Cell-based capture ELISA for inhibition of FAK autophosphorylation [pY397] in MiaPaCa2 cells. Particulars: MIA-PaCa2 cells, + 50% mouse plasma (Table 3); read-out: Mean FAK Cell Mechanistic IC50 + 50% mP MIA-PaCa2. As for the experimental part: Cell-Based Assays for Inhibition of FAK Autophosphorylation: MiaPaCa2 and U87MG
ELISA kit from Invitrogen (KHO0441).
Reagents Provided in Biosource FAK [pY397]
The cells were then suspended in cell assay medium.
In general terms: In an ELISA, binding on a coated surface is turned into a signal by an enzyme label.

In test [2] the target is T1, FAK. In words: biochemical.

T1 sequence (Q05397 whole entry): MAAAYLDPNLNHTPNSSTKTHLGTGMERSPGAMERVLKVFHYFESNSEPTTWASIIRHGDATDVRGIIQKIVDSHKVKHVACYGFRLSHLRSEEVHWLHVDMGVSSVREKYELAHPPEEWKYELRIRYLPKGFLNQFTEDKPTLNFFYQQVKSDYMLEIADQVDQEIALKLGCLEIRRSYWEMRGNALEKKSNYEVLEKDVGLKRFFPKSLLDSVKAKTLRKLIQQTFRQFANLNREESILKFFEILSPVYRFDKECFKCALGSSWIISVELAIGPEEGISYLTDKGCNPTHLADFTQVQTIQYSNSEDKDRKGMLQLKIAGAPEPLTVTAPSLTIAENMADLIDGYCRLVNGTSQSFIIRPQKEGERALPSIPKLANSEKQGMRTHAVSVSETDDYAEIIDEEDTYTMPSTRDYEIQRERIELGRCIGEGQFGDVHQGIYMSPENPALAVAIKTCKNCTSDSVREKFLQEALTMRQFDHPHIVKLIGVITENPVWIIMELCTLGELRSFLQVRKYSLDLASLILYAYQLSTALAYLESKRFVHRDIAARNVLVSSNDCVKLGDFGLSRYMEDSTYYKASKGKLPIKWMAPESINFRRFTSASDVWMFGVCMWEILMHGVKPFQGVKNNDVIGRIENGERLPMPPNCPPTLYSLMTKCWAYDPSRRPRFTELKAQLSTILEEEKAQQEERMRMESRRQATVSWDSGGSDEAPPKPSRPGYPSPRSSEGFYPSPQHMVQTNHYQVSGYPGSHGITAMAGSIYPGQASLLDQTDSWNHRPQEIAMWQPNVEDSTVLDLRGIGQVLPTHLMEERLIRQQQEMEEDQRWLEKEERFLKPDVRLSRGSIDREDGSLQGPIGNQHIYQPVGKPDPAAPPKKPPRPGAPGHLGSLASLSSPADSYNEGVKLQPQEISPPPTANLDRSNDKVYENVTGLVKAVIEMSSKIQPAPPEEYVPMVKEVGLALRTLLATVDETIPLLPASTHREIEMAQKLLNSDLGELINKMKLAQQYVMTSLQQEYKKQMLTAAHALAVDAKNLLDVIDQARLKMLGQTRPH

On to `CN1Cc2c(c(Nc3nc(Nc4ccc(CP(=O)(OCC(F)(F)F)OCC(F)(F)F)cc4)ncc3C(F)(F)F)ccc2[C@H]2CC[C@H](O)CC2)C1=O` [Example 165, Bis(2,2,2-trifluoroethyl) (4-{[4-{[7-(trans-4-hydroxycyclohexyl)-2-methyl-3-oxo-2,3-dihydro-1H-isoindol-4-yl]amino}-5-(trifluoromethyl)pyrimidin-2-yl]amino}benzyl)phosphonate], for which the half-inhibitory concentration (IC50) on FAK [1] and on FAK [2] was below 1 µM in each case.

Consider `CCOP(=O)(Cc1ccc(Nc2ncc(C(F)(F)F)c(Nc3ccc([C@H]4CC[C@@H](OCC)CC4)c4c3C(=O)N(C)C4)n2)cc1)OCC` [Example 166, Diethyl (4-{[4-{[7-(cis-4-ethoxycyclohexyl)-2-methyl-3-oxo-2,3-dihydro-1H-isoindol-4-yl]amino}-5-(trifluoromethyl)pyrimidin-2-yl]amino}benzyl)phosphonate], for which the IC50 on FAK [1] and at FAK [2] was below 1 µM each time.

`CCOP(=O)(Cc1ccc(Nc2ncc(C(F)(F)F)c(Nc3ccc([C@H]4CC[C@@H](OCC)CC4)c4c3C(=O)N(C)C4)n2)c(OC)c1)OCC` [Example 167, Diethyl (4-{[4-{[7-(cis-4-ethoxycyclohexyl)-2-methyl-3-oxo-2,3-dihydro-1H-isoindol-4-yl]amino}-5-(trifluoromethyl)pyrimidin-2-yl]amino}-3-methoxybenzyl) phosphonate]: the IC50 at FAK [1] and on FAK [2] was below 1 µM each time.

For the compound `CCCP(=O)(CCC)c1cccc(Nc2ncc(C(F)(F)F)c(Nc3ccc(-c4cnn(CCO)c4)c4c3C(=O)N(C)C4)n2)c1` [Example 168, 7-{[2-{[3-(Dipropylphosphoryl)phenyl]amino}-5-(trifluoromethyl)pyrimidin-4-yl]amino}-4-[1-(3-hydroxyethyl)-1H-pyrazol-4-yl]-2-methyl-2,3-dihydro-1H-isoindol-1-one], the IC50 at FAK [1] and against FAK [2] was below 1 µM throughout.

For the compound `CCOP(=O)(Cc1ccc(Nc2ncc(C(F)(F)F)c(Nc3ccc([C@H]4CC[C@H](OCC)CC4)c4c3C(=O)N(C)C4)n2)cc1)OCC` [Example 169, Diethyl (4-{[4-{[7-(trans-4-ethoxycyclohexyl)-2-methyl-3-oxo-2,3-dihydro-1H-isoindol-4-yl]amino}-5-(trifluoromethyl)pyrimidin-2-yl]amino}benzyl)phosphonate], the half-inhibitory concentration (IC50) on FAK [1] and on FAK [2] was below 1 µM throughout.

Turning to `CCOP(=O)(OCC)C(F)c1ccc(Nc2ncc(C(F)(F)F)c(Nc3ccccc3C(=O)NC)n2)cc1` (stereo not drawn) [Example 172, Diethyl [fluoro(4-{[4-{[2-(methylcarbamoyl)phenyl]amino}-5-(trifluoromethyl)pyrimidin-2-yl]amino}phenyl)methyl]phosphonate], the IC50 at FAK [1] and on FAK [2] was below 1 µM each time.

For `CCOP(C)(=O)Cc1ccc(Nc2ncc(C(F)(F)F)c(Nc3ccc([C@H]4CC[C@H](O)CC4)c4c3C(=O)N(C)C4)n2)cc1` (stereo partly drawn) [Example 174, Ethyl (4-{[4-{[7-(trans-4-hydroxycyclohexyl)-2-methyl-3-oxo-2,3-dihydro-1H-isoindol-4-yl]amino}-5-(trifluoromethyl)pyrimidin-2-yl]amino}benzyl) methylphosphinate], the IC50 on FAK [1] and against FAK [2] was below 1 µM each time.

Take `CCOP(=O)(Cc1ccc(Nc2ncc(C(F)(F)F)c(Nc3ccc(-c4cnn(CCN(CC)CC)c4)c4c3C(=O)N(C)C4)n2)cc1)OCC` [Example 175, Diethyl [4-({4-[(7-{1-[2-(diethylamino)ethyl]-1H-pyrazol-4-yl}-2-methyl-3-oxo-2,3-dihydro-1H-isoindol-4-yl)amino]-5-(trifluoromethyl)pyrimidin-2-yl}amino)benzyl]phosphonate]: the half-maximal inhibitory concentration (IC50) on FAK [1] and against FAK [2] was below 1 µM throughout.

Take `CCOP(=O)(Cc1ccc(Nc2ncc(C(F)(F)F)c(Nc3ccccc3C(=O)N3CCCC3)n2)cc1)OCC` [Example 176, Diethyl (4-{[4-{[2-(pyrrolidin-1-ylcarbonyl)phenyl]amino}-5-(trifluoromethyl)pyrimidin-2-yl]amino}benzyl)phosphonate]: the half-inhibitory concentration (IC50) (in general, the midpoint of a concentration-inhibition curve) on FAK [1] was 1 to 10 µM; on FAK [2], below 1 µM.

Regarding `CCOP(=O)(O)Cc1ccc(Nc2ncc(C(F)(F)F)c(Nc3ccc(-c4cnn(CCCO)c4)c4c3C(=O)N(C)C4)n2)cc1` [Example 182, Sodium ethyl (4-{[4-({7-[1-(3-hydroxypropyl)-1H-pyrazol-4-yl]-2-methyl-3-oxo-2,3-dihydro-1H-isoindol-4-yl}amino)-5-(trifluoromethyl)pyrimidin-2-yl]amino}benzyl)phosphonate], the IC50 at FAK [1] is 1 to 10 µM; against FAK [2] it was below 1 µM.

Consider `CCOP(=O)(Cc1ccc(Nc2ncc(C(F)(F)F)c(Nc3ccc([C@H]4CC[C@](C)(O)CC4)c4c3C(=O)N(C)C4)n2)cc1)OCC` [Example 183, Diethyl (4-{[4-{[7-(trans-4-hydroxy-4-methylcyclohexyl)-2-methyl-3-oxo-2,3-dihydro-1H-isoindol-4-yl]amino}-5-(trifluoromethyl)pyrimidin-2-yl]amino}benzyl)phosphonate], for which the IC50 at FAK [1] and at FAK [2] was below 1 µM in each case.

`CCOP(=O)(Cc1ccc(Nc2ncc(C(F)(F)F)c(Nc3ccc([C@H]4CC[C@@](C)(O)CC4)c4c3C(=O)N(C)C4)n2)cc1)OCC` [Example 184, Diethyl (4-{[4-{[7-(cis-4-hydroxy-4-methylcyclohexyl)-2-methyl-3-oxo-2,3-dihydro-1H-isoindol-4-yl]amino}-5-(trifluoromethyl)pyrimidin-2-yl]amino}benzyl) phosphonate]: the IC50 on FAK [1] and against FAK [2] was below 1 µM throughout.

For the compound `CNC(=O)c1ccccc1Nc1nc(Nc2ccc(CP(=O)(OCCOC)OCCOC)cc2)ncc1C(F)(F)F` [Example 185, Bis(2-methoxyethyl) (4-{[4-{[2-(methylcarbamoyl)phenyl]amino}-5-(trifluoromethyl)pyrimidin-2-yl]amino}benzyl)phosphonate], the IC50 on FAK [1] and against FAK [2] was below 1 µM each time.

As for `CCOP(=O)(OCC)C(F)(F)c1ccc(Nc2ncc(C(F)(F)F)c(Nc3ccccc3C(=O)NC)n2)cc1` [Example 188, Diethyl [difluoro(4-{[4-{[2-(methylcarbamoyl)phenyl]amino}-5-(trifluoromethyl)-pyrimidin-2-yl]amino}phenyl)methyl]phosphonate], the IC50 at FAK [1] and against FAK [2] was below 1 µM in each case.

Turning to `COCCOP(=O)(Cc1ccc(Nc2ncc(C(F)(F)F)c(Nc3ccc([C@H]4CC[C@H](O)CC4)c4c3C(=O)N(C)C4)n2)cc1)OCCOC` [Example 189, Bis(2-methoxyethyl) (4-{[4-{[7-(trans-4-hydroxycyclohexyl)-2-methyl-3-oxo-2,3-dihydro-1H-isoindol-4-yl]amino}-5-(trifluoromethyl)pyrimidin-2-yl]amino}benzyl)phosphonate], the IC50 on FAK [1] and against FAK [2] was below 1 µM each time.

Turning to `CCOP(=O)(Cc1ccc(Nc2ncc(C(F)(F)F)c(Nc3ccccc3C(N)=O)n2)c(OC)c1)OCC` [Example 190, Diethyl [4-({4-[(2-carbamoylphenyl)amino]-5-(trifluoromethyl)pyrimidin-2-yl}amino)-3-methoxybenzyl]phosphonate], the concentration for half-maximal inhibition (IC50) on FAK [1] and on FAK [2] was below 1 µM in each case.

As to `CCOP(C)(=O)Cc1ccc(Nc2ncc(C(F)(F)F)c(Nc3ccc([C@H]4CC[C@H](O)CC4)c4c3C(=O)N(C)C4)n2)c(OC)c1` (stereo partly drawn) [Example 191, Ethyl (4-{[4-{[7-(trans-4-hydroxycyclohexyl)-2-methyl-3-oxo-2,3-dihydro-1H-isoindol-4-yl]amino}-5-(trifluoromethyl)pyrimidin-2-yl]amino}-3-methoxybenzyl) methylphosphinate], the IC50 on FAK [1] and against FAK [2] was below 1 µM in each case.

Consider `CCOP(=O)(Cc1ccc(Nc2ncc(C(F)(F)F)c(Nc3ccc([C@H]4CC[C@@H](O)CC4)cc3C(=O)N(C)C)n2)c(OC)c1)OCC` [Example 194, Diethyl (4-{[4-{[2-(dimethylcarbamoyl)-4-(cis-4-hydroxycyclohexyl)phenyl]amino}-5-(trifluoromethyl)pyrimidin-2-yl]amino}-3-methoxybenzyl)phosphonate], for which the IC50 at FAK [1] is 1 to 10 µM; at FAK [2], below 1 µM.

For the compound `CCOP(=O)(Cc1ccc(Nc2ncc(C(F)(F)F)c(Nc3ccc([C@H]4CC[C@](C)(O)CC4)c4c3C(=O)N(C)C4)n2)c(OC)c1)OCC` [Example 196, Diethyl (4-{[4-{[7-(trans-4-hydroxy-4-methylcyclohexyl)-2-methyl-3-oxo-2,3-dihydro-1H-isoindol-4-yl]amino}-5-(trifluoromethyl)pyrimidin-2-yl]amino}-3-methoxybenzyl)phosphonate], the IC50 at FAK [1] and at FAK [2] was below 1 µM each time.

For `CCOP(=O)(Cc1ccc(Nc2ncc(C(F)(F)F)c(Nc3ccc([C@H]4CC[C@@](C)(O)CC4)c4c3C(=O)N(C)C4)n2)c(OC)c1)OCC` [Example 197, Diethyl (4-{[4-{[7-(cis-4-hydroxy-4-methylcyclohexyl)-2-methyl-3-oxo-2,3-dihydro-1H-isoindol-4-yl]amino}-5-(trifluoromethyl)pyrimidin-2-yl]amino}-3-methoxybenzyl)phosphonate], the IC50 on FAK [1] and against FAK [2] was below 1 µM throughout.

Regarding `CCCP(=O)(CCC)c1ccc(Nc2ncc(C(F)(F)F)c(Nc3ccc([C@H]4CC[C@H](O)CC4)c4c3C(=O)N(C)C4)n2)cc1` [Example 198, 7-{[2-{[4-(Dipropylphosphoryl)phenyl]amino}-5-(trifluoromethyl)pyrimidin-4-yl]amino}-4-(trans-4-hydroxycyclohexyl)-2-methyl-2,3-dihydro-1H-isoindol-1-one], the IC50 at FAK [1] and at FAK [2] was below 1 µM each time.

(Values after patent US9096624B2 (OSI Pharmaceuticals, LLC, priority 2009, dated 2015).)
